# Assay results from PMC6522964 (Journal of Enzyme Inhibition and Medicinal Chemistry, 2019).
# Where two headings read alike, the source gives them in different places.
# Columns and labels:
# mushroom tyrosinase [1] = target: T1, mushroom tyrosinase (Agaricus bisporus, UniProt C7FF04); assay: Diphenolase activity of mushroom tyrosinase (L-DOPA as substrate), Lineweaver-Burk kinetics; format: biochemical; details: for Inhibition Type / Inhibition Mechanism: diphenolase; for Inhibition Type: Lineweaver-Burk plots; for Inhibition Mechanism: enzyme activity vs enzyme concentration plots; for Inhibition constant KIS: enzyme-substrate complex, plot of vertical intercepts vs inhibitor concentration; for Ki: free enzyme, plot of slopes vs inhibitor concentration, read-out: Inhibition constant KI
# T1 construct: purchased Sigma-Aldrich (St. Louis, MO, USA)
# Experimental: (§1) The reaction system (3 ml) contained 1 mM L-Tyr or 0.5 mM L-DOPA and enzyme in 50 mM Na2HPO4–NaH2PO4 buffer (pH 6.8) and different concentrations of KADs. The KADs were dissolved in DMSO and diluted to appropriate concentration, such that the final concentration of DMSO is maintained at 3.3%. […] The enzyme activity was evaluated by increasing the absorbance at 475 nm accompanying the oxidation of the substrates with a molar absorption coefficient of 3700 (M^−1 cm^−1). […] The reaction was carried out at 37 °C. A Thermo […] GO spectrophotometer was used for absorbance and kinetic measure.
# tyrosinase [2] = target: T2, tyrosinase (Agaricus bisporus, UniProt C7FF04); assay: Intrinsic fluorescence quenching of tyrosinase (Stern-Volmer); format: binding, mushroom
# T2 construct: purchased Sigma-Aldrich (St. Louis, MO, USA)
# Experimental: Fluorescence spectra were determined as previously reported by Zhu.[12] Cary Eclipse fluorescence spectrophotometer was used to record the fluorescence intensities at an excitation wavelength of 280 nm, and emission and excitation slit widths were 10 nm and 5 nm, respectively. At wavelengths of 300–450 nm, fluorescence emission spectra were recorded. In this assay, 10 μL of KADs of different concentrations were incorporated with 2 ml tyrosinase solution (0.2 mg/ml).
# The fluorescence quenching data expressed as the fluorescence intensity against KADs concentration. Fluorescence quenching was calculated using the Stern–Volmer equation: F0/F = 1 + KSV[Q] Where F0 is the fluorescence intensities of tyrosinase, F is the fluorescence intensities after addition of the quencher, [Q] is the concentration of the quencher and KSV is the Stern–Volmer quenching constant. For the calculation of biomolecular quenching constants, the data were plotted as F0/F against [Q], with the biomolecular quenching constants calculated by linear regression.
# There are two known fluorescence quenching mechanisms: static quenching is caused by complex formation while dynamic quenching is caused by collisional processes.[13] For the static quenching, the KSV value must be larger than 100 M^−1 and the apparent binding constant (KA) and the binding sites (n) were estimated by plots of log[(F0−F)/F] versus log[Q] using the following equation:[14] log ((F0 − F)/F) = logKA + nlog [Q]
# tyrosinase [3] = target: T2, tyrosinase; format: biochemical, mushroom; details: increasing CuCl2 0-240 μM; diphenolase activity
# Experimental: To investigate whether the binding of copper ions with the inhibitor takes place at the active site of tyrosinase, the assay was carried out according to the method by Ismaya with some modifications.[17] Stock solutions of each KADs (10 mM) were prepared in DMSO. Then, 0.33 mM solutions were prepared in a cuvette containing phosphate buffer (10 mM, pH 7.4), and treated with different concentrations of CuCl2 (0, 60, 120, 180 or 240 µM). After 10 min of incubation period at room temperature, absorbance was scanned from 240 to 600 nm. Moreover, the relative activity of tyrosinase was determined by adding 0.1 ml various concentrations of CuCl2–KADs complexes from the previous step. The reaction system and the method were the same as the determination of diphenolase activity.
# mushroom tyrosinase [4] = target: T1, mushroom tyrosinase; details: L-Tyr substrate, read-out: IC50 Monophenolase; cited from earlier work
# mushroom tyrosinase [5] = target: T1, mushroom tyrosinase; details: L-DOPA substrate, read-out: IC50 Diphenolase; cited from earlier work
# mushroom tyrosinase [6] = target: T1, mushroom tyrosinase; assay: Monophenolase activity of mushroom tyrosinase (L-Tyr as substrate); format: biochemical; details: maximum concentration 20 μM
# Experimental: as §1
# [7] = DPPH free-radical scavenging assay
# Experimental: (§2) The antioxidant capacities of compounds usually analysed through DPPH and ABTS^+ free-radical scavenging assays. The DPPH free-radical scavenging was conducted according to the procedure described by Chen.[18] Stock solution (0.2 mM DPPH) was prepared in 95% methyl alcohol and diluted to with OD value of 1.1 ± 0.05 at 517 nm for analysis. Briefly, 0.1 ml of compounds dissolved in DMSO at different concentrations (50, 200, 400 and 800 μg/ml) were added to DPPH with a methyl alcohol solution (0.2 mM, 2.9 ml). The mixture was shaken gently and absorbance was read at 517 nm every 5 min, a total of 30 min. The ABTS^+ free-radical scavenging activity assay was performed as described by Ai[9] with slight modification. 7 mM ABTS^+ and 2.45 mM K2S2O8 were dissolved in 10 mM sodium phosphate buffer and then placed at dark room for 16 h to obtain ABTS^+ stock solution. […] After 6 min of incubation period at room temperature, absorbance was read at 714 nm. The scavenging capacity of the antioxidant for the free-radical was calculated according to the following equation: Radical scavenging effect (%) = (1 − A1/A0) × 100% where A0 is the absorbance of blank control and A1 is the absorbance in the presence of sample. Data are represented from three independent experiments, and the mean values were calculated. […]
# [8] = ABTS+ free-radical scavenging assay
# Experimental: as §2
# B16F10 cell = details: cited from earlier work
# T1 sequence (C7FF04 1-392): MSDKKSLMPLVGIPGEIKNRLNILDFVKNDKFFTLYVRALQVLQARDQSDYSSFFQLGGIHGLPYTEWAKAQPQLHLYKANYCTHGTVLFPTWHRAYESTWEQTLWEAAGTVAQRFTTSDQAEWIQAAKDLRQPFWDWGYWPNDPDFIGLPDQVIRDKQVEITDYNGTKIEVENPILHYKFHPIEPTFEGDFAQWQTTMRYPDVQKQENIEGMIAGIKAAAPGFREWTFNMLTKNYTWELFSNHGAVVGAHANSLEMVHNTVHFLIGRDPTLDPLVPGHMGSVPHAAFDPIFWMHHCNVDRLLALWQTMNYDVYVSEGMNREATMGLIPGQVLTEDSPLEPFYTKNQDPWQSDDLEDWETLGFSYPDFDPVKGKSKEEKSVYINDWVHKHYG
# T2 sequence (C7FF04 1-392): as above
Compound,Inhibition Type (mushroom tyrosinase [1]),Inhibition Mechanism (mushroom tyrosinase [1]),Inhibition constant KIS (mushroom tyrosinase [1]),Ki (mushroom tyrosinase [1]),Kd (tyrosinase [2]),KSV (Stern-Volmer quenching constant) (tyrosinase [2]; λex 280 nm),Type of quenching (tyrosinase [2]; λex 280 nm),n (binding sites) (tyrosinase [2]; λex 280 nm),Change of relative tyrosinase activity after treatment with Cu2+ (tyrosinase [3]),IC50 (mushroom tyrosinase [4]),IC50 (mushroom tyrosinase [5]),Lag time of monophenolase activity (mushroom tyrosinase [6]),Steady-state activity of monophenolase decreased to (mushroom tyrosinase [6]; remaining activity),KA (apparent binding constant) (tyrosinase [2]; λex 280 nm),IC50 of DPPH [7],IC50 of ABTS+ [8],Inhibition of melanogenesis (B16F10 cell)
Nn1c(N/N=C/C=C/c2ccccc2)nnc1SCc1cc(=O)c(O)co1 [KAD1],Mixed,Reversible,45.50 µM,4.95 µM,34.8 µM,58400 M⁻¹,Static,0.9394,1.5 times,21.6 µM,8.33 ± 0.22 µM,,,,,,
"N[C@@H](Cc1ccc(O)c(O)c1)C(=O)O [DOPA, 3,4-dihydroxyphenylalanine, reference compound]",,,,,,,,,almost no changes,,,,,,,,
COc1ccccc1C=CC=NNc1nnc(SCc2cc(=O)c(O)co2)n1N [KAD2],Mixed,Reversible,9.18 µM,6.3 µM,,57000 M⁻¹,Static,1.0394,2 times,20.5 µM,7.5 ± 0.13 µM,6.7 min,48.29%,141000 M⁻¹,227.80 µg/mL,126.63 µg/mL,effectively inhibit melanogenesis
